For 21 compounds, IC50 and inhibition results are on record in patent US20150353495A1 (PORTOLA PHARMACEUTICALS, INC., priority 2010, published 2015).

Bounds are passed on as bounds.

One assay addresses T1, JAK2 (Homo sapiens, UniProt O60674).
T1 construct: 5 μl of catalytic domain recombinant Kinase enzyme+Tyr peptide substrate (Invitrogen, CA); purchased Invitrogen
The assay can be described thus: Z'-LYTE kinase assay JAK2. The assay is classed as biochemical. The gist of the method: (§1)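 In duplicate wells, each test molecule (1% final DMSO) is incubated with recombinant kinase catalytic domain, Tyr6 peptide substrate and ATP for one hour at room temperature; a site-specific protease is then added for another hour before fluorescence reading.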

The next assay has as its target T2, JAK1 (Homo sapiens, UniProt P23458).
T2 construct: 5 μl of catalytic domain recombinant Kinase enzyme+Tyr peptide substrate (Invitrogen, CA); purchased Invitrogen
The assay can be described thus: Z'-LYTE kinase assay JAK1. The assay is classed as biochemical. In a few lines: as §1

The subject of assay [1] is JAK1/3 signaling to STAT6 in Ramos B cells. The assay can be described thus: IL4 stimulation of JAK1/3 signaling to STAT6 in Ramos B cells (pSTAT6 Y641, FACS). It counts as cell-based. The conditions noted are these: Homo sapiens; for inhibition at 0.2 µM: 0.2 uM compound, read-out: IL-4/STAT6 in Ramos Percent Inhibition at 0.2 uM; for inhibition at 1 µM: 1.0 uM compound, read-out: IL-4/STAT6 in Ramos Percent Inhibition at 1.0 uM. The method, then:
IL4 stimulation of JAK1/3 signaling to STATE in Ramos B cells:
As an alternative strategy to measure effect of JAK3 inhibitors on JAK1/3 dependent cytokine signaling pathways, IL4 stimulation of the Ramos Burkett's B cell line is used. IL4 engages a receptor consisting of the IL4 receptor alpha chain and the common gamma chain. […] Ramos B cells are suspended in tissue culture media containing 10% fetal calf serum at 10×10̂6 cells/ml. 100 μl aliquots are pre-treated for 1 hour with various concentrations of compound, and then stimulated for 15 minutes with 15 ng IL4. The signaling reaction is terminated by fixing in 2% paraformaldehyde for 10 minutes at room temperature. Fixed cells are then washed and permeablized by suspension in 100% methanol at −80° C. Following overnight incubation at 4° C., cells are washed and resuspended in PBS containing 0.5% bovine serum albumin containing pSTAT6 Y641-PE conjugated antibody. After 1 hour incubation, cells are washed and the extent of STAT6 phosphorlyation in Ramos cells is measured by FACS analysis.

Another assay has as its target T3, JAK3 (Homo sapiens, UniProt P52333).
T3 construct: 5 μl of catalytic domain recombinant Kinase enzyme+Tyr peptide substrate (Invitrogen, CA); purchased Invitrogen
The assay can be described thus: Z'-LYTE kinase assay JAK3. It counts as biochemical. In a few lines:
as §1

The target of another assay is T4, TYK2 (Homo sapiens, UniProt P29597).
T4 construct: 5 μl of catalytic domain recombinant Kinase enzyme+Tyr peptide substrate (Invitrogen, CA); purchased Invitrogen
T4 sequence (P29597 897-1176 limits assumed): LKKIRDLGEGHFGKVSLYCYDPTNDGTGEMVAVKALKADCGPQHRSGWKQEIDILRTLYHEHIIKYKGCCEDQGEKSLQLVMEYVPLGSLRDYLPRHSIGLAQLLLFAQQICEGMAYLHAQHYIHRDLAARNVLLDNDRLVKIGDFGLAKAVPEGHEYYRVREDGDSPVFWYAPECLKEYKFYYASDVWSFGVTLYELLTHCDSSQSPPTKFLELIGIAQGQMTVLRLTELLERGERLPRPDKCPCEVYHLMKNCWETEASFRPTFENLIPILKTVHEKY
Kind of assay: Z'-LYTE kinase assay TYK2. The assay is classed as biochemical. The gist of the method: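 IC50 derived by 4-parameter logistic fit of percent substrate phosphorylation relative to uninhibited wells. Tyr6 peptide phosphorylated by recombinant TYK2 catalytic domain for 1 h at room temperature (1% DMSO), cleaved by development protease 1 h, FRET emission ratio 445/520 nm.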

T1 sequence (O60674 849-1124 limits assumed): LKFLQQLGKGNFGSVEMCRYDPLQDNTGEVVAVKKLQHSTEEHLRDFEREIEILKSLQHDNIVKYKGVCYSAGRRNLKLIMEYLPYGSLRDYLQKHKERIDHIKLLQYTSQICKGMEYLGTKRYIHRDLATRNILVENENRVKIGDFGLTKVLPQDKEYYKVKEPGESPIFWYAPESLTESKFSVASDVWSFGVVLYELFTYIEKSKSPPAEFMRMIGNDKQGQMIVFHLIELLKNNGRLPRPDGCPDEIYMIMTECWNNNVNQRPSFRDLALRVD
T3 sequence (P52333 822-1111 limits assumed): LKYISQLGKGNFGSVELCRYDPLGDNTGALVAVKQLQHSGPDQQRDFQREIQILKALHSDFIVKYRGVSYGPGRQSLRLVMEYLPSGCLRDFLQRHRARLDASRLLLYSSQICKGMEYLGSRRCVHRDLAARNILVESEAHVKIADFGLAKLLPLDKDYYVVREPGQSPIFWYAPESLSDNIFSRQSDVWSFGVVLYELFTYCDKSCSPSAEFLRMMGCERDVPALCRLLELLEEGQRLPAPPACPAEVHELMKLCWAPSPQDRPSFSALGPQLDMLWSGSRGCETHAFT
T2 sequence (P23458 875-1153 limits assumed): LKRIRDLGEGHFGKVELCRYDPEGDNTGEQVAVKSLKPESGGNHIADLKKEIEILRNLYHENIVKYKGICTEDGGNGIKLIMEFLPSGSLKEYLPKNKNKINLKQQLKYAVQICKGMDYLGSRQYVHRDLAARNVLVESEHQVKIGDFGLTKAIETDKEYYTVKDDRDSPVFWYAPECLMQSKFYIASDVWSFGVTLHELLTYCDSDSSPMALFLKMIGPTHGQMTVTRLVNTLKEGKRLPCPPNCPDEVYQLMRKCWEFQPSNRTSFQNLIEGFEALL

`CC(=O)N1CCN(c2ccc(Nc3cc(NCc4ccccc4)c(C(N)=O)cn3)cc2)CC1` [Example 3, 6-(4-(4-acetylpiperazin-1-yl)phenylamino)-4-(benzylamino)nicotinamide]: the IC50 against JAK2 is 10 to 100 nM; against JAK1, 100 to 1000 nM; at JAK3, 10 to 100 nM; against TYK2 it was 100 to 1000 nM. For the same compound, the inhibition at 0.2 µM in assay [1] was 22%. In assay [1], the inhibition at 1 µM turned out to be 43%.

On to `CNC(=O)[C@H]1CCCN(c2ccc(Nc3cc(NCc4ccccc4)c(C(N)=O)cn3)cc2)C1` [Example 4, (S)-4-(benzylamino)-6-(4-(3-(methylcarbamoyl)piperidin-1-yl)phenylamino)nicotinamide], for which the IC50 at JAK2 lay within 100 to 1000 nM; at JAK1, 100 to 1000 nM; against JAK3, 1 to 10 nM; on TYK2, 100 to 1000 nM. The inhibition at 0.2 µM in assay [1] was 32%. The inhibition at 1 µM in assay [1] turned out to be 68%.

Regarding `CC(=O)N1CCN(c2ccc(Nc3cc(NCc4ccccc4)c(C(N)=O)cn3)cc2C)CC1` [Example 5, 6-(4-(4-acetylpiperazin-1-yl)-3-methylphenylamino)-4-(benzylamino)nicotinamide], the IC50 on JAK2 lay within 100 to 1000 nM; at JAK1, 100 to 1000 nM; at JAK3, 1 to 10 nM; against TYK2, 100 to 1000 nM. For the same compound, the inhibition at 0.2 µM in assay [1] amounted to 37%. Besides, in assay [1], the inhibition at 1 µM is 61%.

Regarding `CNC(=O)[C@@H]1CCCN(c2ccc(Nc3cc(NCc4ccccc4)c(C(N)=O)cn3)cc2)C1` [Example 6, (R)-4-(benzylamino)-6-(4-(3-(methylcarbamoyl)piperidin-1-yl)phenylamino)nicotinamide], the IC50 against JAK2 lay within 100 to 1000 nM; against JAK1, 100 to 1000 nM; on JAK3 it was 1 to 10 nM; against TYK2, 100 to 1000 nM. In assay [1], the inhibition at 0.2 µM was 39%. Also, the inhibition at 1 µM in assay [1] came to 65%.

With `CNC(=O)[C@@H]1CCCN(c2ccc(Nc3cc(N[C@H](C)c4ccccc4)c(C(N)=O)cn3)cc2)C1` [Example 8, 6-(4-((R)-3-(methylcarbamoyl)piperidin-1-yl)phenylamino)-4-((R)-1-phenylethylamino)nicotinamide], the IC50 was 100 to 1000 nM at JAK2, 100 to 1000 nM on JAK1, 1 to 10 nM at JAK3 and over 1000 nM at TYK2. Moreover, in assay [1], the inhibition at 0.2 µM is 8%. Also, the inhibition at 1 µM in assay [1] is 30%.

Regarding `Cc1ccc(Nc2cc(NCc3ccccc3)c(C(N)=O)cn2)cc1` [Example 10, 4-(benzylamino)-6-(p-tolylamino)nicotinamide], the IC50 on JAK2 was over 1000 nM; at JAK1 it was over 1000 nM; against JAK3, 100 to 1000 nM; at TYK2, over 1000 nM. Further, the inhibition at 0.2 µM in assay [1] was found to be 6%. The inhibition at 1 µM in assay [1] is 20%.

Turning to `NC(=O)c1cnc(Nc2ccc(N3CCOCC3)cc2)c(Cl)c1NCc1cccc(F)c1` [Example 377, 5-chloro-4-(3-fluorobenzylamino)-6-(4-morpholinophenylamino)nicotinamide], the IC50 was over 1000 nM against JAK2, over 1000 nM against JAK1, 100 to 1000 nM on JAK3 and over 1000 nM against TYK2.

Regarding `N#CCOc1ccc(Nc2cc(NCc3ccccc3)c(C(N)=O)cn2)cc1` [Example 384], the IC50 was 100 to 1000 nM against JAK2, 100 to 1000 nM against JAK1, 1 to 10 nM against JAK3 and over 1000 nM on TYK2.

As for `N#CCCc1ccc(Nc2cc(NCc3ccccc3)c(C(N)=O)cn2)cc1` [Example 386], the IC50 against JAK2 was in the range of 100 to 1000 nM; against JAK1 it was 100 to 1000 nM; on JAK3, 1 to 10 nM; at TYK2 it was 100 to 1000 nM.

As to `COc1cc(Nc2cc(NCc3ccccc3)c(C(N)=O)cn2)ccc1C(=O)N(C)C` [Example 436, 4-(benzylamino)-6-(4-(dimethylcarbamoyl)-3-methoxyphenylamino)nicotinamide], the IC50 on JAK2 was 100 to 1000 nM; against JAK1, over 1000 nM; at JAK3, 1 to 10 nM; on TYK2, 100 to 1000 nM.

As to `CN(C)C(=O)c1ccc(Nc2cc(NCc3ccccc3)c(C(N)=O)cn2)cc1Cl` [Example 437, 4-(benzylamino)-6-(3-chloro-4-(dimethylcarbamoyl)phenylamino)nicotinamide], the IC50 on JAK2 was 100 to 1000 nM; against JAK1, over 1000 nM; against JAK3, 1 to 10 nM; against TYK2, 100 to 1000 nM.

As to `Cc1cc(Nc2cc(NCc3ccccc3)c(C(N)=O)cn2)ccc1C(=O)N(C)C` [Example 438, 4-(benzylamino)-6-(4-(dimethylcarbamoyl)-3-methylphenylamino)nicotinamide], the IC50 at JAK2 was in the range of 10 to 100 nM; at JAK1, 100 to 1000 nM; at JAK3 it was 1 to 10 nM; against TYK2 it was 100 to 1000 nM.

For the compound `CC(=O)N1CCC[C@H](CNc2cc(Nc3ccc(C(=O)N(C)C)c(C)c3)ncc2C(N)=O)C1` [Example 443], the IC50 at JAK2 is 100 to 1000 nM; at JAK1 it was over 1000 nM; against JAK3, 1 to 10 nM; at TYK2, 100 to 1000 nM.

Regarding `Cc1cc(Nc2cc(NCc3ccccc3)c(C(N)=O)cn2)ccc1C(=O)N1CCCC1` [Example 446, 4-(benzylamino)-6-(3-methyl-4-(pyrrolidine-1-carbonyl)phenylamino)nicotinamide], the IC50 against JAK2 was in the range of 10 to 100 nM; against JAK1, 100 to 1000 nM; against JAK3, 1 to 10 nM; against TYK2, 100 to 1000 nM.

With `Cc1cc(Nc2cc(NCc3ccccc3)c(C(N)=O)cn2)ccc1C(=O)N1CCOCC1` [Example 447, 4-(benzylamino)-6-(3-methyl-4-(morpholine-4-carbonyl)phenylamino)nicotinamide], the IC50 at JAK2 lay within 10 to 100 nM; at JAK1, 100 to 1000 nM; against JAK3, 1 to 10 nM; on TYK2 it was 100 to 1000 nM.

In the case of `Cc1cc(Nc2cc(NCc3ccccc3)c(C(N)=O)cn2)ccc1C(=O)N1CCC1` [Example 448, 6-(4-(azetidine-1-carbonyl)-3-methylphenylamino)-4-(benzylamino)nicotinamide], the IC50 against JAK2 fell in the range of 10 to 100 nM; against JAK1, 100 to 1000 nM; on JAK3, 1 to 10 nM; against TYK2 it was 10 to 100 nM.

On to `Cc1cc(Nc2cc(NCc3ccccc3)c(C(N)=O)cn2)ccc1C(=O)NCCO` [Example 449, 4-(benzylamino)-6-(4-(2-hydroxyethylcarbamoyl)-3-methylphenylamino)nicotinamide], for which the IC50 was in the range of 100 to 1000 nM against JAK2, 100 to 1000 nM at JAK1, 1 to 10 nM against JAK3 and 100 to 1000 nM on TYK2.

On to `Cc1cc(Nc2cc(NCc3ccccc3)c(C(N)=O)cn2)ccc1C(=O)N(C)C1CC1` [Example 450, 4-(benzylamino)-6-(4-(cyclopropyl(methyl)carbamoyl)-3-methylphenylamino)nicotinamide], for which the IC50 is 100 to 1000 nM against JAK2, 100 to 1000 nM on JAK1, 1 to 10 nM against JAK3 and 10 to 100 nM on TYK2.

Take `Cc1cc(Nc2cc(NCc3ccccc3)c(C(N)=O)cn2)ccc1C(=O)N1CC=CC1` [Example 451, 4-(benzylamino)-6-(4-(2,5-dihydro-1H-pyrrole-1-carbonyl)-3-methylphenylamino)nicotinamide]: the IC50 against JAK2 fell in the range of 10 to 100 nM; on JAK1 it was 100 to 1000 nM; at JAK3 it was 1 to 10 nM; on TYK2, 100 to 1000 nM.

As to `Cc1cc(Nc2cc(NCc3ccccc3)c(C(N)=O)cn2)ccc1C(=O)N(C)CCO` [Example 452], the IC50 at JAK2 was in the range of 10 to 100 nM; against JAK1 it was 100 to 1000 nM; against JAK3, 1 to 10 nM; on TYK2, 100 to 1000 nM.

Turning to `COCCN(C)C(=O)c1ccc(Nc2cc(NCc3ccccc3)c(C(N)=O)cn2)cc1C` [Example 453, 4-(benzylamino)-6-(4-((2-methoxyethyl)(methyl)carbamoyl)-3-methylphenylamino)nicotinamide], the IC50 against JAK2 lay within 10 to 100 nM; on JAK1 it was 100 to 1000 nM; on JAK3, 1 to 10 nM; against TYK2, 100 to 1000 nM.

The term IC50 denotes the concentration needed to halve the response being measured. Low values mean higher potency, high ones lower potency.
